Test results taken from ChEMBL document CHEMBL1201862, “PubChem BioAssay data set” (2004).
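Protocol summary: plate cells (96-well), add compound at 5 concentrations, incubate 48 h, interpolate endpoints linearly. The concentration for 50% growth inhibition is given as GI50.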 Activity calls are given as the source filed them. Cut-off read from the data, not from the text of the source: active = GI50 up to about 1.1 µM and inactive = higher.

Assays:
Assay in all cases: NCI-60 cell line screen, 48 h
[1] = tested on: NCI-H226
[2] = tested on: SK-MEL-5
[3] = tested on: K562
[4] = tested on: OVCAR-3
[5] = tested on: PC-3
[6] = tested on: RPMI-8226
[7] = tested on: SNB-75
[8] = tested on: NCI-H460
[9] = tested on: EKVX
[10] = tested on: NCI-H522
[11] = tested on: KM12
[12] = tested on: BT-549
[13] = tested on: Malme-3M
[14] = tested on: OVCAR-4
[15] = tested on: HCT-116
[16] = tested on: IGROV-1
[17] = tested on: SK-MEL-2
[18] = tested on: MDA-MB-435
[19] = tested on: DU-145
[20] = tested on: UACC-257
[21] = tested on: HCT-15
[22] = tested on: OVCAR-8
[23] = tested on: HOP-62
[24] = tested on: UO-31
[25] = tested on: 786-0
[26] = tested on: NCI/ADR-RES
[27] = tested on: A549
[28] = tested on: CCRF-CEM
[29] = tested on: RXF 393
[30] = tested on: OVCAR-5
[31] = tested on: SF-268
[32] = tested on: COLO 205
[33] = tested on: NCI-H23
[34] = tested on: MCF7
[35] = tested on: ACHN
[36] = tested on: Hs-578T
[37] = tested on: M14
[38] = tested on: SF-295
[39] = tested on: SN12C
[40] = tested on: TK-10
[41] = tested on: MOLT-4
[42] = tested on: HOP-92
[43] = tested on: SF-539
[44] = tested on: SNB-19
[45] = tested on: UACC-62
[46] = tested on: HCC 2998
[47] = tested on: U-251
[48] = tested on: LOX IMVI
[49] = tested on: MDA-N
[50] = tested on: SW-620
[51] = tested on: A498
[52] = tested on: HL-60
[53] = tested on: HT-29
[54] = tested on: SK-MEL-28
[55] = tested on: CAKI-1
[56] = tested on: SR
[57] = tested on: T47D
[58] = tested on: SK-OV-3

Structure (SMILES): O=c1[nH]nc(-c2cccc(Br)c2)[nH]1
- GI50 [1]: > 100 µM (inactive)
- GI50 [2]: > 100 µM (inactive)
- GI50 [3]: > 100 µM (inactive)
- GI50 [4]: > 100 µM (inactive)
- GI50 [5]: > 100 µM (inactive)
- GI50 [6]: > 100 µM (inactive)
- GI50 [7]: 43.3 µM (inactive)
- GI50 [8]: > 100 µM (inactive)
- GI50 [9]: 2.48 µM (inactive)
- GI50 [10]: > 100 µM (inactive)
- GI50 [11]: > 100 µM (inactive)
- GI50 [12]: 4.74 µM (inactive)
- GI50 [13]: > 100 µM (inactive)
- GI50 [14]: > 100 µM (inactive)
- GI50 [15]: > 100 µM (inactive)
- GI50 [16]: > 100 µM (inactive)
- GI50 [17]: > 100 µM (inactive)
- GI50 [18]: > 100 µM (inactive)
- GI50 [19]: > 100 µM (inactive)
- GI50 [20]: > 100 µM (inactive)
- GI50 [21]: > 100 µM
- GI50 [22]: > 100 µM (inactive)
- GI50 [23]: > 100 µM (inactive)
- GI50 [24]: 94.2 µM (inactive)
- GI50 [25]: > 100 µM (inactive)
- GI50 [26]: > 100 µM (inactive)
- GI50 [27]: > 100 µM (inactive)
- GI50 [28]: > 100 µM (inactive)
- GI50 [29]: > 100 µM (inactive)
- GI50 [30]: > 100 µM (inactive)
- GI50 [31]: > 100 µM (inactive)
- GI50 [32]: > 100 µM (inactive)
- GI50 [33]: > 100 µM (inactive)
- GI50 [34]: > 100 µM (inactive)
- GI50 [35]: > 100 µM (inactive)
- GI50 [36]: 18.2 µM (inactive)
- GI50 [37]: > 100 µM (inactive)
- GI50 [38]: > 100 µM (inactive)
- GI50 [39]: > 100 µM (inactive)
- GI50 [40]: > 100 µM (inactive)
- GI50 [41]: > 100 µM (inactive)
- GI50 [42]: > 100 µM (inactive)
- GI50 [43]: > 100 µM (inactive)
- GI50 [44]: > 100 µM (inactive)
- GI50 [45]: > 100 µM (inactive)
- GI50 [46]: > 100 µM (inactive)
- GI50 [47]: > 100 µM (inactive)
- GI50 [48]: > 100 µM (inactive)
- GI50 [49]: > 100 µM (inactive)
- GI50 [50]: > 100 µM (inactive)
- GI50 [51]: > 100 µM (inactive)
- GI50 [52]: > 100 µM (inactive)
- GI50 [53]: > 100 µM (inactive)
- GI50 [54]: > 100 µM (inactive)
- GI50 [55]: > 100 µM (inactive)
- GI50 [56]: > 100 µM (inactive)
- GI50 [57]: > 100 µM (inactive)

Structure (SMILES): CCOC(=O)C1(F)S(=O)(=O)OCCOS1(=O)=O
- GI50 [1]: > 100 µM (inactive)
- GI50 [2]: > 100 µM (inactive)
- GI50 [4]: > 100 µM (inactive)
- GI50 [5]: > 100 µM (inactive)
- GI50 [6]: > 100 µM (inactive)
- GI50 [7]: > 100 µM (inactive)
- GI50 [9]: > 100 µM (inactive)
- GI50 [10]: > 100 µM (inactive)
- GI50 [11]: > 100 µM (inactive)
- GI50 [12]: > 100 µM (inactive)
- GI50 [13]: > 100 µM (inactive)
- GI50 [14]: > 100 µM (inactive)
- GI50 [15]: > 100 µM (inactive)
- GI50 [17]: > 100 µM (inactive)
- GI50 [18]: > 100 µM (inactive)
- GI50 [19]: > 100 µM (inactive)
- GI50 [20]: > 100 µM (inactive)
- GI50 [21]: > 100 µM
- GI50 [22]: > 100 µM (inactive)
- GI50 [23]: > 100 µM (inactive)
- GI50 [24]: > 100 µM (inactive)
- GI50 [25]: > 100 µM (inactive)
- GI50 [26]: > 100 µM (inactive)
- GI50 [27]: > 100 µM (inactive)
- GI50 [29]: > 100 µM (inactive)
- GI50 [30]: > 100 µM (inactive)
- GI50 [31]: > 100 µM (inactive)
- GI50 [32]: > 100 µM (inactive)
- GI50 [33]: > 100 µM (inactive)
- GI50 [58]: > 100 µM (inactive)
- GI50 [34]: > 100 µM (inactive)
- GI50 [35]: > 100 µM (inactive)
- GI50 [36]: 93.3 µM (inactive)
- GI50 [37]: > 100 µM (inactive)
- GI50 [38]: > 100 µM (inactive)
- GI50 [39]: > 100 µM (inactive)
- GI50 [40]: > 100 µM (inactive)
- GI50 [41]: > 100 µM (inactive)
- GI50 [43]: > 100 µM (inactive)
- GI50 [44]: > 100 µM (inactive)
- GI50 [45]: > 100 µM (inactive)
- GI50 [46]: > 100 µM (inactive)
- GI50 [47]: > 100 µM (inactive)
- GI50 [48]: > 100 µM (inactive)
- GI50 [49]: > 100 µM (inactive)
- GI50 [50]: > 100 µM (inactive)
- GI50 [53]: > 100 µM (inactive)
- GI50 [54]: > 100 µM (inactive)
- GI50 [55]: > 100 µM (inactive)
- GI50 [56]: > 100 µM (inactive)
- GI50 [57]: > 100 µM (inactive)
